In PMC4328002 (Natural Products and Bioprospecting, 2015):
Values joined by “and” are separate entries in the source; they are usually repeats but may differ in a detail not shown here. Identical values can stand only once. Like-named read-outs stand apart in the source and are kept apart here.

Assays:
A549 (lung carcinoma) = test: cells; format: cell-based, human
[1] = system: MCF-7 (breast adenocarcinoma); test: cells; format: cell-based, human; conditions: read-out: Cancer cell line IC50, MCF-7
[2] = system: SMMC-7721 (hepatocarcinoma); test: cells; format: cell-based, human; conditions: read-out: Cancer cell line IC50, SMMC-7721
[3] = system: SW-480 (colon adenocarcinoma); test: cells; format: cell-based, human; conditions: read-out: Cancer cell line IC50, SW480
[4] = system: HL-60 (promyelocytic leukemia); test: cells; format: cell-based, human; conditions: read-out: Cancer cell line IC50, HL-60
[5] = system: BEAS-2B normal cell line (human bronchial epithelial cell); conditions: for IC50: read-out: Cancer cell line IC50, BEAS-2B
[6] = system: HL-60, SMMC-7721, A549, MCF-7 and SW-480 human cancer cell lines; test: cells; format: cell-based; conditions: read-out: IC50 values across the five cancer cell lines
[7] = system: BEAS-2B normal cell line (human bronchial epithelial cell); test: cells; conditions: read-out: Cancer cell line IC50, BEAS-2B
[8] = read-out: Cancer cell line IC50, A549
[9] = Homo sapiens, A549, 48 h, read-out: Cancer cell line IC50, A549
[10] = Homo sapiens, A549, read-out: Cancer cell line IC50, A549

N.N.[Cl][Pt][Cl] [Cisplatin, cisplatin, reference compound]
IC50 (A549 (lung carcinoma); [8]): 6.43 µM and 9.72 µM
IC50 [1]: 13.3 µM
IC50 [2]: 5.81 µM
IC50 [3]: 12 µM
IC50 [4]: 1.91 µM
IC50 [5]: 9.53 µM

C/C=C\C(=O)O[C@@H]1C[C@H]2O[C@@]34C=C(C)C(=O)C[C@]3(C)[C@]1(C)[C@]2(CO)O4 [Compound 1, engleromycone A]
IC50 ([6]; Homo sapiens, 48 h): 14.3 to 20.2 µM
IC50 (A549 (lung carcinoma); [9]): 19.1 µM
IC50 (A549 (lung carcinoma); [10]): 18.9 µM
IC50 ([1]; Homo sapiens, MCF7, 48 h): 18 µM
IC50 ([2]; Homo sapiens, SMMC-7721, 48 h): 19.1 µM
IC50 [7]: 19.4 µM
IC50 ([3]; Homo sapiens, SW480, 48 h): 20.2 µM
IC50 ([4]; Homo sapiens, HL-60, 48 h): 14.3 µM
selective cytotoxicity against the A549 cell line [5]: did not exhibit selective cytotoxicity

C=C1[C@H]2C[C@@H](OC(=O)/C=C\C)[C@]1(C)[C@@]1(C)CC(=O)C(C)=C[C@H]1O2 [Compound 2, engleromycone B]
IC50 ([6]; Homo sapiens, 48 h): 2.7 to 21.1 µM
IC50 (A549 (lung carcinoma); [9]): 2.98 µM
IC50 (A549 (lung carcinoma); [10]): 5.82 µM
IC50 ([1]; Homo sapiens, MCF7, 48 h): 21.1 µM
IC50 ([2]; Homo sapiens, SMMC-7721, 48 h): 8.41 µM
IC50 [7]: 9.87 µM
IC50 ([3]; Homo sapiens, SW480, 48 h): 9.25 µM
IC50 ([4]; Homo sapiens, HL-60, 48 h): 2.7 µM
selective cytotoxicity against the A549 cell line [5]: did not exhibit selective cytotoxicity

CC1=C[C@]23O[C@@H]4[C@@H](O)C[C@](C)([C@@]2(C)CC1)[C@]4(CO)O3 [Compound 3, sambucinol]
IC50 ([6]; Homo sapiens, 48 h): > 40 µM
IC50 (A549 (lung carcinoma); [9]): > 40 µM
IC50 ([1]; Homo sapiens, MCF7, 48 h): > 40 µM
IC50 ([2]; Homo sapiens, SMMC-7721, 48 h): > 40 µM
IC50 ([3]; Homo sapiens, SW480, 48 h): > 40 µM
IC50 ([4]; Homo sapiens, HL-60, 48 h): > 40 µM

CC1=C[C@]23O[C@@H]4CC[C@](C)([C@@]2(C)CC1)[C@]4(CO)O3 [Compound 4, 3-deoxysambucinol]
IC50 ([6]; Homo sapiens, 48 h): > 40 µM
IC50 (A549 (lung carcinoma); [9]): > 40 µM
IC50 ([1]; Homo sapiens, MCF7, 48 h): > 40 µM
IC50 ([2]; Homo sapiens, SMMC-7721, 48 h): > 40 µM
IC50 ([3]; Homo sapiens, SW480, 48 h): > 40 µM
IC50 ([4]; Homo sapiens, HL-60, 48 h): > 40 µM

CC1=C[C@H]2O[C@@H]3C[C@@H](O)[C@](C)([C@@]2(C)CC1=O)[C@]31CO1 [Compound 5, trichothecolone]
IC50 (A549 (lung carcinoma); [8]): 4.16 µM and 5.71 µM
IC50 [1]: 16.5 µM
IC50 [2]: 6.92 µM
IC50 [3]: 8.52 µM
IC50 [4]: 4.86 µM
selective cytotoxicity against the A549 cell line [5]: did not exhibit selective cytotoxicity
IC50 [5]: 4.18 µM

C/C=C\C(=O)O[C@@H]1C[C@H]2O[C@@H]3C=C(C)C(=O)C[C@]3(C)[C@]1(C)[C@]21CO1 [Compound 8, trichothecin]
IC50 [6]: < 3.5 µM
IC50 (A549 (lung carcinoma); [8]): 0.2 µM and 0.22 µM
IC50 [1]: 0.21 µM
IC50 [2]: 0.22 µM
IC50 [3]: 0.18 µM
IC50 [4]: 0.14 µM
selective cytotoxicity against the A549 cell line [5]: did not exhibit selective cytotoxicity
IC50 [5]: 0.27 µM

C/C=C\C(=O)O[C@@H]1[C@@H](O)[C@H]2O[C@@H]3C=C(C)C(=O)C[C@]3(C)[C@]1(C)[C@]21CO1 [Compound 10, trichothecinol A]
IC50 [6]: < 3.5 µM
IC50 (A549 (lung carcinoma); [8]): 0.015 µM and 0.016 µM
IC50 [1]: 0.006 µM
IC50 [2]: 0.02 µM
IC50 [3]: 0.011 µM
IC50 [4]: 0.022 µM
selective cytotoxicity against the A549 cell line [5]: did not exhibit selective cytotoxicity
IC50 [5]: 0.025 µM

CC(=O)O[C@H]1C(=O)[C@@]2(C)[C@H]([C@H](OC(=O)c3ccccc3)[C@]3(O)C[C@H](OC(=O)[C@H](O)[C@@H](NC(=O)c4ccccc4)c4ccccc4)C(C)=C1C3(C)C)[C@]1(OC(C)=O)CO[C@@H]1C[C@@H]2O [Taxol, paclitaxel, reference compound]
IC50 (A549 (lung carcinoma); [9]): < 0.008 µM
IC50 (A549 (lung carcinoma); [10]): < 0.008 µM
IC50 ([1]; Homo sapiens, MCF7, 48 h): < 0.008 µM
IC50 ([2]; Homo sapiens, SMMC-7721, 48 h): < 0.008 µM
IC50 [7]: < 0.98 µM
IC50 ([3]; Homo sapiens, SW480, 48 h): < 0.008 µM
IC50 ([4]; Homo sapiens, HL-60, 48 h): < 0.008 µM
